Source: patent US7838522B2, “Benzothiazole formulations and use thereof” (Ares Trading S.A., priority 2004, dated 2010)

Assay: Pharmacokinetic profile after oral administration in Beagle dogs
Assay type: in vivo
Conditions: dog, plasma, 10.6 mg/kg, Compound A in Water for Injection
Method: Macrogol Glyceride formulations were orally administered in Beagle dogs as extemporaneous suspension in PBS at a dose of 10.6 mg/kg following the protocol below, by gavage in a volume of 2 mL/kg and bulk formulation by forced introduction into the throat.
The formulations were administered to the animals which had fasted overnight (i.e. for about 16 hours) before treatment, food was allowed again 4 hours after treatment.
Macrogol Glyceride formulations (1) and (2) were orally administered as described above. A wash-out interval between the administration of formulation (1) and of formulations (2) was of at least 1 week.
6 Beagle dogs (3 males and 3 females) of about 10-13 kg of bodyweight and of age 9 to 12 months were used. Animals were weighed fasted before administration and the body weight recorded.
Blood (at least 2.5 ml) was collected from a jugular vein into heparinised tubes before and after dosing, at the following 15 times:
Blood was centrifuged within 15 min at about 2500 g at +4° C. for 10 min. Blood cells were discharged and plasma obtained was divided into 3 aliquots (at least 0.3 mL each). The plasma concentrations of Compound A (free base of Compound A, mesylate) in the unknown dog plasma samples was determined by a High Performance Liquid Chromatography/Mass Spectrometry (HPLC/MS). […]

Which bioavailability does the source give for `N#CC(c1ccnc(OCc2ccc(CN3CCOCC3)cc2)n1)c1nc2ccccc2s1` (stereo not shown) [Compound A, 1,3 benzothiazol-2-yl-[2-(4-morpholin-4-ylmethyl-benzyloxy)-pyrimidin-4-yl]-acetonitrile] here?
The bioavailability was < 15%.
